How the values were obtained:
[1] = OlympiA exposure to study treatment, dose intensity, dose reductions and treatment discontinuations; format: in vivo, human; details: safety analysis set; 300 mg bd, N = 911
Method: A total of 1815 patients (911 in the olaparib-group and 904 in the placebo-group) were included in the safety analysis. The median number of days at 300 mg twice-daily protocol dose was 338 with percentage of intended dose being 94.8% in the olaparib-group, and 358 days and 98.9% in the placebo-group (Tables S11 to S13 in the Supplementary Appendix). Early treatment discontinuations, including discontinuations due to recurrence, occurred in 236 (25.9%) of the olaparib-group and 187 (20.7%) of the placebo-group (Figure S4 in the Supplementary Appendix).
In the olaparib-group, 228 patients (25.0%) required a dose reduction compared to 47 (5.2%) in the placebo-group. Adverse events requiring permanent discontinuation of the trial drug occurred in 90 patients (9.9%) in the olaparib-group and 38 patients (4.2%) in the placebo-group. […] (Table S15, S16 in the Supplementary Appendix). […] Any differences between the treatment arms are not considered clinically significant (Figure S5 in the Supplementary Appendix).

[2] = OlympiA safety analysis: adverse events, blood transfusions; format: in vivo
Method: Efficacy analyses were based on the intention-to-treat (ITT) population. Survival functions were estimated by Kaplan-Meier method. The stratified Cox proportional-hazards model was used to estimate the hazard ratio and confidence intervals, the comparison of survival between treatment arms was tested by stratified log-rank test. […] Safety was assessed in the population who received at least one dose of study medication.
Adverse events of special interest included pneumonitis, radiation pneumonitis, myelodysplastic syndrome (MDS)/AML, and new primary malignancy other than AML/MDS.

[3] = olaparib group, safety analysis set
[4] = safety analysis set, olaparib n=911
[5] = safety analysis set, olaparib n=911, listed as olaparib
[6] = safety analysis set, 300 mg bd, N = 911
[7] = treatment month: >=1-2 months, 300 mg bd, N = 911
[8] = treatment month: >=2-3 months, 300 mg bd, N = 911
[9] = treatment month: >=3-4 months, 300 mg bd, N = 911
[10] = treatment month: >=4-5 months, 300 mg bd, N = 911
[11] = treatment month: >=5-6 months, 300 mg bd, N = 911
[12] = treatment month: >=6-7 months, 300 mg bd, N = 911
[13] = treatment month: >=7-8 months, 300 mg bd, N = 911
[14] = treatment month: >=8-9 months, 300 mg bd, N = 911
[15] = treatment month: >=9-10 months, 300 mg bd, N = 911
[16] = treatment month: >=10-11 months, 300 mg bd, N = 911
[17] = treatment month: >=11 months, 300 mg bd, N = 911
[18] = treatment month: Up to month 1, 300 mg bd, N = 911

O=C(c1cc(Cc2n[nH]c(=O)c3ccccc23)ccc1F)N1CCN(C(=O)C2CC2)CC1 [Olaparib, 4-[(3-{[4-(cyclopropane-carbonyl)piperazine-1-yl]carbonyl}-4-fluorophenyl)methyl]-2H-phthalazin-1-one]
Number of patients with a dose reduction: 1 dose reduction (%) [1]: 170 (18.7) patients (%)
Number of patients with a dose reduction: 2 dose reductions (%) [1]: 57 (6.3) patients (%)
Number of patients with a dose reduction: 3 or more dose reductions (%) [1]: 1 (0.1) patients (%)
Patients with a dose reduction (%) [1]: 228 (25.0) patients (%)
Patients with no dose reduction (%) [1]: 683 (75.0) patients (%)
Reason for reduction: Administrative reasons (%) [1]: 2 (0.2) patients (%)
Reason for reduction: Adverse event (%) [1]: 222 (24.4) patients (%)
Reason for reduction: Dosing error (%) [1]: 6 (0.7) patients (%)
Reason for reduction: Other (%) [1]: 0 (0.0) patients (%)
Total number of dose reductions [1]: 287
anemia leading to discontinuation of study drug [2, 3]: 1.8%
fatigue leading to discontinuation of study drug [2, 3]: 1.3%
nausea leading to discontinuation of study drug [2, 3]: 2.0%
neutrophil count decreased leading to discontinuation of study drug [2, 3]: 1%
Number of patients with only 1 transfusion ([2]; safety analysis set, olaparib N=911): 4.1%
Patients with at least one blood transfusion ([2]; safety analysis set, olaparib N=911, up to 30 days after last dose): 5.8%
Neutrophil count decreased (neutropenia), Grade ≥3 [2, 4]: (4.8) %
Neutrophil count decreased, Grade ≥3 [2, 4]: 44 no.
White blood cell count decreased (leukopenia), Grade ≥3 [2, 4]: (3.0) %
White blood cell count decreased, Grade ≥3 [2, 4]: 27 no.
Anemia, Grade ≥3 [2, 5]: 8.7%
Fatigue, Grade ≥3 [2, 5]: 1.8%
Neutrophil count decreased (neutropenia), Grade ≥3 [2, 5]: 4.8%
White blood cell count decreased (leukopenia), Grade ≥3 [2, 5]: 3.0%
AE leading to permanent discontinuation of treatment: Abdominal pain upper [2, 6]: 1 (0.1) no. of patients (%)
AE leading to permanent discontinuation of treatment: Anaemia [2, 6]: 16 (1.8) no. of patients (%)
AE leading to permanent discontinuation of treatment: Arthralgia [2, 6]: 1 (0.1) no. of patients (%)
AE leading to permanent discontinuation of treatment: Breast cancer [2, 6]: 1 (0.1) no. of patients (%)
AE leading to permanent discontinuation of treatment: Decreased appetite [2, 6]: 2 (0.2) no. of patients (%)
AE leading to permanent discontinuation of treatment: Diarrhoea [2, 6]: 3 (0.3) no. of patients (%)
AE leading to permanent discontinuation of treatment: Dizziness [2, 6]: 2 (0.2) no. of patients (%)
AE leading to permanent discontinuation of treatment: Drug hypersensitivity [2, 6]: 3 (0.3) no. of patients (%)
AE leading to permanent discontinuation of treatment: Fatigue [2, 6]: 12 (1.3) no. of patients (%)
AE leading to permanent discontinuation of treatment: Headache [2, 6]: 7 (0.8) no. of patients (%)
AE leading to permanent discontinuation of treatment: Nausea [2, 6]: 18 (2.0) no. of patients (%)
AE leading to permanent discontinuation of treatment: Neutrophil count decreased [2, 6]: 9 (1.0) no. of patients (%)
AE leading to permanent discontinuation of treatment: Pruritus [2, 6]: 3 (0.3) no. of patients (%)
AE leading to permanent discontinuation of treatment: Vomiting [2, 6]: 7 (0.8) no. of patients (%)
AE leading to permanent discontinuation of treatment: White blood cell count decreased [2, 6]: 6 (0.7) no. of patients (%)
Any AE leading to permanent discontinuation [2, 6]: 90 (9.9) no. of patients (%)
lymphopenia, grade 3 or higher ([2]; safety analysis, olaparib-group): 1.2%
Blood transfusions over time, Total no. of transfusions [2, 7]: 2
Blood transfusions over time, no. of patients (%) [2, 7]: 2 (0.2) no. of patients (%)
Blood transfusions over time, Total no. of transfusions [2, 8]: 22
Blood transfusions over time, no. of patients (%) [2, 8]: 21 (2.3) no. of patients (%)
Blood transfusions over time, Total no. of transfusions [2, 9]: 10
Blood transfusions over time, no. of patients (%) [2, 9]: 8 (0.9) no. of patients (%)
Blood transfusions over time, Total no. of transfusions [2, 10]: 5
Blood transfusions over time, no. of patients (%) [2, 10]: 5 (0.5) no. of patients (%)
Blood transfusions over time, Total no. of transfusions [2, 11]: 8
Blood transfusions over time, no. of patients (%) [2, 11]: 7 (0.8) no. of patients (%)
Blood transfusions over time, Total no. of transfusions [2, 12]: 4
Blood transfusions over time, no. of patients (%) [2, 12]: 4 (0.4) no. of patients (%)
Blood transfusions over time, Total no. of transfusions [2, 13]: 8
Blood transfusions over time, no. of patients (%) [2, 13]: 8 (0.9) no. of patients (%)
Blood transfusions over time, Total no. of transfusions [2, 14]: 3
Blood transfusions over time, no. of patients (%) [2, 14]: 3 (0.3) no. of patients (%)
Blood transfusions over time, Total no. of transfusions [2, 15]: 2
Blood transfusions over time, no. of patients (%) [2, 15]: 2 (0.2) no. of patients (%)
Blood transfusions over time, Total no. of transfusions [2, 16]: 3
Blood transfusions over time, no. of patients (%) [2, 16]: 3 (0.3) no. of patients (%)
Blood transfusions over time, Total no. of transfusions [2, 17]: 5
Blood transfusions over time, no. of patients (%) [2, 17]: 5 (0.5) no. of patients (%)
Blood transfusions over time, Total no. of transfusions [2, 18]: 2
Blood transfusions over time, no. of patients (%) [2, 18]: 2 (0.2) no. of patients (%)
